Where two headings read alike, the source gives them in different places.
Columns and labels:
[1] = after ingestion; cited from earlier work
subjects with OSA [2] = conditions: cited from earlier work; for Reduction in AHI (%): relative to baseline or placebo
subjects with OSA [3] = assay: Published studies on the effect of single agent acetazolamide on AHI, with linear trend line dose-response; type: in vivo, human; conditions: from linear trend line of published studies
Text: These studies tested a range of doses across a selection of different patient cohorts.

subjects with OSA [4] = assay: Published study (Carley et al. 2018) on the effect of single agent dronabinol on AHI, with trend line dose-response; type: in vivo, human; conditions: from trend line of published data

## CC(=O)Nc1nnc(S(N)(=O)=O)s1 [Acetazolamide, acetazolamide]
[1]
  Time to mean peak plasma concentrations: about 2 hours
Subjects with OSA [2]; 250 mg/day, Chin, 1992, baseline/placebo AHI 38.9
  Acetazolamide AHI: 29.6
Subjects with OSA [2]; 250 mg/day, Chin, 1992
  Reduction in AHI (%): 23.9%
Subjects with OSA [2]; 250 mg/day, Tojima, 1988, baseline/placebo AHI 25
  Acetazolamide AHI: 18.1
Subjects with OSA [2]; 250 mg/day, Tojima, 1988
  Reduction in AHI (%): 27.6%
Subjects with OSA [2]; 351.2 mg/day, Inoue, 1999
  Reduction in AHI (%): 29.5%
Subjects with OSA [2]; 375 mg/day, Inoue, 1987, baseline/placebo AHI 26.9
  Acetazolamide AHI: 17.3
Subjects with OSA [2]; 375 mg/day, Inoue, 1987
  Reduction in AHI (%): 35.7%
Subjects with OSA [2]; 750 mg/day, Eskandari, 2018, baseline/placebo AHI 38
  Acetazolamide AHI: 23
Subjects with OSA [2]; 750 mg/day, Eskandari, 2018
  Reduction in AHI (%): 39.5%
Subjects with OSA [2]; 1000 mg/day, Edwards, 2012, baseline/placebo AHI 49.6
  Acetazolamide AHI: 24
Subjects with OSA [2]; 1000 mg/day, Edwards, 2012
  Reduction in AHI (%): 51.6%
Subjects with OSA [2]; 1000 mg/day, Whyte, 1988, baseline/placebo AHI 50
  Acetazolamide AHI: 26
Subjects with OSA [2]; 1000 mg/day, Whyte, 1988
  Reduction in AHI (%): 48%
Subjects with OSA [3]; acetazolamide 125 mg
  Predicted AHI reduction (%), single agent: 23.4%
Subjects with OSA [3]; acetazolamide 250 mg
  Predicted AHI reduction (%), single agent: 27.1%
Subjects with OSA [3]; acetazolamide 500 mg
  Predicted AHI reduction (%), single agent: 34.5%

## CCCCCc1cc(O)c2c(c1)OC(C)(C)C1CCC(C)=CC21 (stereo not drawn) [Dronabinol]
Subjects with OSA [4]; dronabinol 2.5 mg/day
  Predicted AHI reduction (%), single agent: 23.4%
Subjects with OSA [4]; dronabinol 5 mg/day
  Predicted AHI reduction (%), single agent: 26.5%
[1]
  Time to peak effects: 2 to 4 h
  Time to significant concentrations in plasma/blood: 30 to 60 min

Source: patent publication US12636295B2, “Compositions and methods for the treatment of obstructive sleep apnoea (OSA)” (Incannex Healthcare Limited, priority 2020, dated 2026)
